What was measured:
[1] = system: Substance-P receptor (Homo sapiens), P25103 [Q165A]; assay: Inhibition against Q165A mutant NK1 receptor expressed in CHO cells, using [125]SP as radioligand at 1 uM; type: cell-based
Substance-P receptor [2] = biological target: T1, Substance-P receptor (Homo sapiens, UniProt P25103); assay: Tested for binding affinity against Tachykinin receptor 1 expressed in CHO cells, using [125]SP as radioligand at 1 uM; type: cell-based
Substance-P receptor [3] = biological target: T1, Substance-P receptor; assay: Tested for binding affinity against Tachykinin receptor 1 expressed in CHO cells, using [125]SP as radioligand.; type: cell-based
Substance-K receptor [4] = biological target: T2, Substance-K receptor (Homo sapiens, UniProt P21452); assay: Tested for binding affinity against Tachykinin receptor 2 expressed in CHO cells, using [125]SP as radioligand.; type: cell-based
T2 sequence (P21452 whole entry): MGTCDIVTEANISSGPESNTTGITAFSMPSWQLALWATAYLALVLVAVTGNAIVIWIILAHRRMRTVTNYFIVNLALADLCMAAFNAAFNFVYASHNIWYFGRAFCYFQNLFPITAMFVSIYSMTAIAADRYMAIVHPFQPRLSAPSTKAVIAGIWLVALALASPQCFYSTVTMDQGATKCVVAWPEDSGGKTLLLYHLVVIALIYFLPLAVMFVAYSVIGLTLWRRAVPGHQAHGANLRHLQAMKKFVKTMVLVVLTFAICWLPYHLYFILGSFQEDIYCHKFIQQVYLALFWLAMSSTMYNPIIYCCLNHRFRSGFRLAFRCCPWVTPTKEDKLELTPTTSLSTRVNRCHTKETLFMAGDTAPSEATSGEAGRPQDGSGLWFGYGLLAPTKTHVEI

Substance-P receptor [5] = biological target: T1, Substance-P receptor; assay: Tested for binding affinity against human wild type NK1 receptor expressed in CHO cells, using [125]SP as radioligand.; type: cell-based
Substance-P receptor [6] = biological target: Substance-P receptor (Homo sapiens, UniProt P25103, H197A); assay: Tested for binding affinity against H197A mutant NK1 receptor using [125]SP radioligand in COS cells.; type: cell-based
Substance-P receptor (Homo sapiens, UniProt P25103, H197A), sequence (P25103 whole entry H197A): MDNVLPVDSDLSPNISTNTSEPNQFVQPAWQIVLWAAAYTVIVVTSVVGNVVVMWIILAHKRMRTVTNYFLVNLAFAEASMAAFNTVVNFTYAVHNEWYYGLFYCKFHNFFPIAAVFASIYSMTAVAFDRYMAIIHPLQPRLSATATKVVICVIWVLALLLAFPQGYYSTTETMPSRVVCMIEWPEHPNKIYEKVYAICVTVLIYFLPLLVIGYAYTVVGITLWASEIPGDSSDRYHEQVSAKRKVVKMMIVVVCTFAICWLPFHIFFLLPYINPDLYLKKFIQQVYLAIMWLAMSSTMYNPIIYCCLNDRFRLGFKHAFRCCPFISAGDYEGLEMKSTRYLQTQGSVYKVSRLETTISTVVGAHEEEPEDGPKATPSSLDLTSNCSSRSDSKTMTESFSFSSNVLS

Substance-P receptor [7] = biological target: Substance-P receptor (Homo sapiens, UniProt P25103, H265A); assay: Tested for binding affinity against H265A mutant NK1 receptor using [125]SP radioligand in COS cells.; type: cell-based
Substance-P receptor (Homo sapiens, UniProt P25103, H265A), sequence (P25103 whole entry H265A): as the sequence (P25103 whole entry H197A) above, with A197H, H265A counted along it

Substance-P receptor [8] = biological target: T1, Substance-P receptor; assay: Tested for binding affinity against Tachykinin receptor 1
Somatostatin receptor = assay: Tested for binding affinity against somatostatin receptor on AtT-20 cells; type: cell-based; details: att20
[9] = biological target: Somatostatin receptor type 4 (Homo sapiens, UniProt P31391); assay: Tested for binding affinity against human somatostatin receptor subtype 4 (hSSTR4)
Somatostatin receptor type 4, sequence (P31391 whole entry): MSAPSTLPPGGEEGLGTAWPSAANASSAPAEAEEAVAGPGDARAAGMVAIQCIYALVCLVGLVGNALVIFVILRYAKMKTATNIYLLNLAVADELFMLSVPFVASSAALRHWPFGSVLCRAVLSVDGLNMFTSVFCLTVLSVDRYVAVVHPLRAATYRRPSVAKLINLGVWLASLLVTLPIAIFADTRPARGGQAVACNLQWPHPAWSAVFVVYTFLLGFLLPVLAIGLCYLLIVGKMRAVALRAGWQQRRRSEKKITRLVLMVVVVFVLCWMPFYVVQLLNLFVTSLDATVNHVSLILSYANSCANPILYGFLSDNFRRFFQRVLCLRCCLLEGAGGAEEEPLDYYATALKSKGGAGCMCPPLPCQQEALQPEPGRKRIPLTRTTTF

Substance-P receptor [10] = biological target: T1, Substance-P receptor; assay: Tested for binding affinity against Tachykinin receptor 1 expressed in CHO cells, using [125]SP as radioligand; NA - did not bind; type: cell-based
Substance-K receptor [11] = biological target: T2, Substance-K receptor; assay: Tested for binding affinity against Tachykinin receptor 2 expressed in CHO cells, using [125]SP as radioligand; NA - did not bind; type: cell-based
Substance-P receptor [12] = biological target: Substance-P receptor (Homo sapiens, UniProt P25103, Q165A); assay: Tested for binding affinity against Q165A mutant NK1 receptor expressed in CHO cells, using [125]SP as radioligand; type: cell-based
Substance-P receptor (Homo sapiens, UniProt P25103, Q165A), sequence (P25103 whole entry Q165A): as the sequence (P25103 whole entry H197A) above, with Q165A, A197H counted along it

T1 sequence (P25103 whole entry): as the sequence (P25103 whole entry H197A) above, with A197H counted along it
Substance-P receptor (Homo sapiens), P25103 [Q165A], sequence (P25103 whole entry Q165A): as the sequence (P25103 whole entry H197A) above, with Q165A, A197H counted along it

`C[C@@H](O)[C@@H]1NC(=O)[C@H](Cc2ccc(F)cc2)NC(=O)[C@@H](Cc2c[nH]c3ccccc23)NC(=O)[C@H](Cc2ccccc2)NC(=O)[C@H](Cc2ccccc2)NC(=O)[C@H](CC(N)=O)NC(=O)[C@H](CCCCN)NC(=O)[C@@H](N)CSSC[C@H](C(=O)O)NC(=O)[C@H](CO)NC(=O)[C@H]([C@@H](C)O)NC(=O)[C@H](Cc2ccccc2)NC1=O` was tested, and the inhibition [1] was 37%.

For `C[C@H](NC(=O)CN)C(=O)N[C@H]1CSSC[C@H](C(=O)O)NC(=O)[C@H](CO)NC(=O)[C@H]([C@@H](C)O)NC(=O)[C@H](Cc2ccccc2)NC(=O)[C@H]([C@@H](C)O)NC(=O)[C@H](CCCCN)NC(=O)[C@H](Cc2c[nH]c3ccccc23)NC(=O)[C@H](Cc2ccccc2)NC(=O)[C@H](Cc2ccccc2)NC(=O)[C@H](CC(N)=O)NC(=O)[C@H](CCCCN)NC1=O`, the inhibition (Substance-P receptor [2]) was 7%.

Molecule `C[C@H](NC(=O)CN)C(=O)N[C@H]1CSSC[C@H](C(=O)O)NC(=O)[C@H](CO)NC(=O)[C@H]([C@@H](C)O)NC(=O)[C@H](Cc2ccccc2)NC(=O)[C@H]([C@@H](C)O)NC(=O)[C@H](Cc2ccc(F)cc2)NC(=O)[C@@H](Cc2c[nH]c3ccccc23)NC(=O)[C@H](Cc2ccccc2)NC(=O)[C@H](Cc2ccccc2)NC(=O)[C@H](CC(N)=O)NC(=O)[C@H](CCCCN)NC1=O` has an inhibition [1] of 30%.

Work on `C[C@@H](O)[C@@H]1NC(=O)[C@H](Cc2ccccc2)NC(=O)[C@H]([C@@H](C)O)NC(=O)[C@H](Cc2ccc(F)cc2)NC(=O)[C@@H](Cc2c[nH]c3ccccc23)NC(=O)[C@H](Cc2ccccc2)NC(=O)[C@H](Cc2ccccc2)NC(=O)[C@H](CC(N)=O)NC(=O)[C@H](CCCCN)NC(=O)[C@@H](N)CSSC[C@@H](C(=O)O)NC(=O)[C@H](CO)NC1=O` yielded an IC50 (Substance-P receptor [3]) of 250 nM, an IC50 (Substance-K receptor [4]) of 46 nM and an IC50 (Substance-P receptor [5]) of 260 nM. For the same molecule, the IC50 (Substance-P receptor [6]) was 900 nM and the IC50 (Substance-P receptor [7]) was 9600 nM.

`NCCCCCOC[C@H]1O[C@@H](OCCc2c[nH]c3ccccc23)[C@H](OCc2ccccc2)[C@@H](OCc2ccccc2)[C@@H]1OCc1ccccc1` gave an IC50 (Substance-P receptor [8]) of 120 nM.

With `C[C@@H](O)[C@@H]1NC(=O)[C@H](CCCCN)C2C(=O)[C@@H](Cc3c2[nH]c2ccccc32)NC(=O)[C@H](Cc2ccccc2)NC(=O)[C@@H]2CCCC2C(=O)[C@H](Cc2ccccc2)NC1=O` (stereo not given in full) the IC50 (Somatostatin receptor) was 15000 nM and the IC50 [9] was 100 nM.

For `C[C@H](NC(=O)CN)C(=O)N[C@H]1CSSC[C@H](C(=O)O)NC(=O)[C@H](CO)NC(=O)[C@H]([C@@H](C)O)NC(=O)[C@H](Cc2ccccc2)NC(=O)[C@H]([C@@H](C)O)NC(=O)[C@H](CCCCN)NC(=O)[C@@H](Cc2c[nH]c3ccccc23)NC(=O)[C@H](Cc2ccccc2)NC(=O)[C@H](Cc2ccccc2)NC(=O)[C@H](CC(N)=O)NC(=O)[C@H](CCCCN)NC1=O`, the IC50 (Substance-P receptor [10]) was “Not Active” and the IC50 (Substance-K receptor [11]) was “Not Active”.

Work on `C[C@@H](O)[C@@H]1NC(=O)[C@H](Cc2ccc(F)cc2)C2C(=O)[C@@H](Cc3c2[nH]c2ccccc32)NC(=O)[C@H](Cc2ccccc2)NC(=O)[C@@H]2CCCC2C(=O)[C@H](Cc2ccccc2)NC1=O` (stereo not given in full) yielded an IC50 (Substance-P receptor [8]) of 28 nM.

In the case of `C[C@H](NC(=O)CN)C(=O)N[C@H]1CSSC[C@@H](C(=O)O)NC(=O)[C@H](CO)NC(=O)[C@H]([C@@H](C)O)NC(=O)[C@H](Cc2ccccc2)NC(=O)[C@H]([C@@H](C)O)NC(=O)[C@H](Cc2ccc(F)cc2)NC(=O)[C@@H](Cc2c[nH]c3ccccc23)NC(=O)[C@H](Cc2ccccc2)NC(=O)[C@H](Cc2ccccc2)NC(=O)[C@H](CC(N)=O)NC(=O)[C@H](CCCCN)NC1=O`, the IC50 (Substance-P receptor [3]) is reported as 220 nM, the IC50 (Substance-K receptor [4]) is reported as 27 nM and the IC50 (Substance-P receptor [5]) is reported as 240 nM. For the same molecule, the IC50 (Substance-P receptor [6]) was 950 nM and the IC50 (Substance-P receptor [7]) was 6100 nM.

`C[C@H](NC(=O)CN)C(=O)N[C@H]1CSSC[C@@H](C(=O)O)NC(=O)[C@H](CO)NC(=O)[C@H]([C@@H](C)O)NC(=O)[C@H](Cc2ccccc2)NC(=O)[C@H]([C@@H](C)O)NC(=O)[C@H](Cc2ccc(F)cc2)NC(=O)[C@H](Cc2c[nH]c3ccccc23)NC(=O)[C@H](Cc2ccccc2)NC(=O)[C@H](Cc2ccccc2)NC(=O)[C@H](CC(N)=O)NC(=O)[C@H](CCCCN)NC1=O` gave an IC50 (Substance-K receptor [4]) of 730 nM, an IC50 (Substance-P receptor [5]) of 1400 nM and an IC50 (Substance-P receptor [6]) of 2700 nM. The IC50 (Substance-P receptor [7]) was 8200 nM and the IC50 (Substance-P receptor [12]) was 3600 nM.

Work on `C[C@H](NC(=O)CN)C(=O)N[C@H]1CSSC[C@@H](C(=O)O)NC(=O)[C@H](CO)NC(=O)[C@H]([C@@H](C)O)NC(=O)[C@H](Cc2ccccc2)NC(=O)[C@H]([C@@H](C)O)NC(=O)[C@H](CCCCN)NC(=O)[C@H](Cc2c[nH]c3ccccc23)NC(=O)[C@H](Cc2ccccc2)NC(=O)[C@H](Cc2ccccc2)NC(=O)[C@H](CC(N)=O)NC(=O)[C@H](CCCCN)NC1=O` yielded an IC50 (Substance-K receptor [4]) of 850 nM.

Reference: ChEMBL document CHEMBL1133015 (J Med Chem, 2000)
